Reference: PMC10166855, “Tau activation of microglial cGAS–IFN reduces MEF2C-mediated cognitive resilience” (Nature neuroscience, 2023)

Biological target: human cGAS (cyclic GMP–AMP synthase) (Homo sapiens, UniProt Q8N884)
Experiment: cell-free cGAS activity assay, ATP depletion by Kinase-Glo luminescence
Assay type: biochemical
Source text: cell-free cGAS activity assay, ATP depletion by Kinase-Glo luminescence on human cGAS (cyclic GMP–AMP synthase) | Dose-dependent inhibition of cGAS activity (as measured in a) in response to HT-DNA.

Chain of human cGAS (cyclic GMP–AMP synthase) (Q8N884 whole entry): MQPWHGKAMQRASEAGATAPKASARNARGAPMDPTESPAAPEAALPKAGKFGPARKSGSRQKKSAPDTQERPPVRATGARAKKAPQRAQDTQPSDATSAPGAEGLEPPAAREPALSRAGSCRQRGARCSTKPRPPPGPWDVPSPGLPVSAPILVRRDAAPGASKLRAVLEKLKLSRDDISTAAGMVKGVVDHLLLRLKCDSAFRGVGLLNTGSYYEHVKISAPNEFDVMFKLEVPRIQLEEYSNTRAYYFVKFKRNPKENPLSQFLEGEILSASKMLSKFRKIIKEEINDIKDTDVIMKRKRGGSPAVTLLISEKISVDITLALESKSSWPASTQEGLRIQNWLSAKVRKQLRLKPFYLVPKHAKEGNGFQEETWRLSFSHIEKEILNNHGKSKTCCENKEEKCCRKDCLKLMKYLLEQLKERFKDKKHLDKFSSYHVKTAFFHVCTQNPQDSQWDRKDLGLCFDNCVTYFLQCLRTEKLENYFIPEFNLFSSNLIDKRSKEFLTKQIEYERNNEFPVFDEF

## TDI-8246
  IC50: 81.2 nM
